From patent US11111251B2, “Positive allosteric modulators of the muscarinic acetylcholine receptor M1” (Vanderbilt University, priority 2016, dated 2021)
Where two headings read alike, the source gives them in different places.

Target: T1, human mAChR M1 (Homo sapiens, UniProt P11229)
T1 sequence (P11229 1-460): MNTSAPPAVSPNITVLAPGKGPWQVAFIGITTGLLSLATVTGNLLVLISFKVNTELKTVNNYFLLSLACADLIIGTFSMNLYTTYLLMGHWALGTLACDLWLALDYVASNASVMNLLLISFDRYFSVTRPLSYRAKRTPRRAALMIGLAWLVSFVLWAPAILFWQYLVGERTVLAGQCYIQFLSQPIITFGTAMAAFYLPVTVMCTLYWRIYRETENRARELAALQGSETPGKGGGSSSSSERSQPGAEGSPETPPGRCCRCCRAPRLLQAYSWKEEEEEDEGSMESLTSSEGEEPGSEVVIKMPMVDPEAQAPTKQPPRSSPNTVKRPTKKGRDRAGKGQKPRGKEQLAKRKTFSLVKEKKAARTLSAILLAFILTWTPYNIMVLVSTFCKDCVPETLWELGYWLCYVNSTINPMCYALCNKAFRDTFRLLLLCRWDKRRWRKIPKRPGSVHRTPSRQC
Assay: mAChR M1 cell-based functional assay: calcium mobilization, positive allosteric modulator mode (increase in EC20 acetylcholine response)
Conditions: for EC50: read-out: Human M1 EC50; for Emax: read-out: Human M1 Emax (%)
Summary of the method: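 PAM potency reflects the concentration-dependent increase in calcium response to an EC20 acetylcholine challenge, given 144 s into a 300 s read after compound addition at 4 s (EC80 follows at 230 s). Cells were hM1-expressing CHO-K1, loaded 50 min with Fluo-4 AM. Curves used 11 points at 1:3 dilutions and four-parameter logistic fitting.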

SMILES | EC50 (Table 2, human M1) | Emax (Table 2, human M1) | Emax
O=C(NC1CCCCNC1=O)c1cc(Cc2ccc(C(F)(F)F)nc2)c2sccc2n1 (stereo not drawn) [Compound 98, N-(2-oxoazepan-3-yl)-7-[[6-(trifluoromethyl)-3-pyridyl]methyl]thieno[3,2-b]pyridine-5-carboxamide] | 6000 nM | 66.6% | –
Cn1ncc2nc(C(=O)NC3CC4(COC4)C3)cc(Cc3ccc(-n4cccn4)cc3)c21 [Compound 500, 1-methyl-N-(2-oxaspiro[3.3]heptan-6-yl)-7-[(4-pyrazol-1-ylphenyl)methyl]pyrazolo-[4,3-b]pyridine-5-carboxamide] | > 10000 nM | 63.1% | –
O=C(NCC1CCCCO1)c1cc(Cc2ccc(-c3nccs3)cc2)c2sccc2n1 (stereo not drawn) [Compound 375, N-(tetrahydropyran-2-ylmethyl)-7-[(4-thiazol-2-ylphenyl)methyl]thieno[3,2-b]pyridine-5-carboxamide] | > 10000 nM | 77.4% | –
Cn1ccc2nc(C(=O)NCC3CCOCC3)cc(Cc3ccc(-c4cscn4)cc3)c21 [Compound 466, 1-methyl-N-(tetrahydropyran-4-ylmethyl)-7-[(4-thiazol-4-ylphenyl)methyl]pyrrolo[3,2-b]pyridine-5-carboxamide] | 364 nM | 72.2% | –
Cn1ccc2nc(C(=O)NC3CCOCC3)cc(Cc3ccc(-n4cccn4)cc3)c21 [Compound 455, 1-methyl-7-[(4-pyrazol-1-ylphenyl)methyl]-N-tetrahydropyran-4-yl-pyrrolo[3,2-b]pyridine-5-carboxamide] | 136 nM | 75.1% | –
Cc1ccc(Cc2cc(C(=O)N[C@@H]3COCC[C@H]3O)nc3c(C)csc23)cn1 [Compound 105] | 825 nM | 87.7% | –
Cn1ccc(-c2ccc(Cc3cc(C(=O)NCC4CCCCO4)nc4ccsc34)cn2)n1 (stereo not drawn) [Compound 359, 7-[[6-(1-methylpyrazol-3-yl)-3-pyridyl]methyl]-N-(tetrahydropyran-2-ylmethyl)thieno[3,2-b]pyridine-5-carboxamide] | 573 nM | 83.4% | –
COCCCNC(=O)c1cc(Cc2ccc(-c3nccs3)cc2)c2sccc2n1 [Compound 372, N-(3-methoxypropyl)-7-[(4-thiazol-2-ylphenyl)methyl]thieno[3,2-b]pyridine-5-carboxamide] | 1880 nM | 75.3% | –
Cc1csc2c(Cc3ccc(-n4cccn4)cc3)cc(C(=O)NC[C@@H]3CCCO3)nc12 [Compound 323, 3-methyl-7-[(4-pyrazol-1-ylphenyl)methyl]-N-[[(2S)-tetrahydrofuran-2-yl]methyl]thieno[3,2-b]pyridine-5-carboxamide] | 689 nM | 76.8% | –
Cn1ccc2nc(C(=O)N[C@H]3CCCOC3)cc(Cc3ccc(-c4cscn4)cc3)c21 [Compound 462, 1-methyl-N-[(3S)-tetrahydropyran-3-yl]-7-[(4-thiazol-4-ylphenyl)methyl]pyrrolo[3,2-b]pyridine-5-carboxamide] | 2050 nM | 67.9% | –
O=C(c1cc(Cc2ccc(-n3cccn3)cc2)c2sccc2n1)N1[C@@H]2CC[C@H]1CC(O)C2 (stereo partly drawn) [Compound 80, [(1S,5R)-3-hydroxy-8-azabicyclop[3.2.1]octan-8-yl]-[7-[(4-pyrazol-1-ylphenyl)methyl]thieno[3,2-b]pyridin-5-yl]methanone] | > 10000 nM | – | 65.9%
CO[C@@H]1CCCC[C@H]1NC(=O)c1cc(Cc2cnc(C)s2)c2sccc2n1 [Compound 139, N-[(1R,2R)-2-methoxycyclohexyl]-7-[(2-methylthiazol-5-yl)methyl]thieno[3,2-b]pyridine-5-carboxamide] | > 10000 nM | 51.1% | –
Cc1ncc(Cc2cc(C(=O)N[C@@H]3COCC[C@H]3O)nc3ccsc23)s1 [Compound 138, N-[(3R,4R)-4-hydroxytetrahydropyran-3-yl]-7-[(2-methylthiazol-5-yl)methyl]thieno[3,2-b]pyridine-5-carboxamide] | > 10000 nM | 74.3% | –

Continued, in another order:

EC50 (Table 2, human M1) | Emax (Table 2, human M1) | SMILES | Emax
3.41 nM | 50.9% | Cn1cc(-c2ccc(Cc3cc(C(=O)N[C@H]4CCOC[C@@H]4O)nc4ccsc34)cc2)cn1 [Compound 267, N-[(3R,4S)-3-hydroxytetrahydropyran-4-yl]-7-[[4-(1-methylpyrazol-4-yl)phenyl]methyl]thieno[3,2-b]pyridine-5-carboxamide] | –
1620 nM | 71.6% | Cn1ccc(-c2ccc(Cc3cc(C(=O)N[C@H]4CCCOC4)nc4ccsc34)cn2)n1 [Compound 422, 7-[[6-(1-methylpyrazol-3-yl)-3-pyridyl]methyl]-N-[(3S)-tetrahydropyran-3-yl]thieno[3,2-b]pyridine-5-carboxamide] | –
18.5 nM | 60.1% | O=C(N[C@H]1CCCC[C@@H]1O)c1cc(Cc2ccc(-c3cncs3)cc2)c2sccc2n1 [Compound 395, N-[(1S,2S)-2-hydroxycyclohexyl]-7-[(4-thiazol-5-ylphenyl)methyl]thieno[3,2-b]pyridine-5-carboxamide] | –
438 nM | 60.9% | O=C(NC1CC2(COC2)C1)c1cc(Cc2ccc(-c3cncs3)cc2)c2sccc2n1 [Compound 398, N-(2-oxaspiro[3.3]heptan-6-yl)-7-[(4-thiazol-5-ylphenyl)methyl]thieno[3,2-b]pyridine-5-carboxamide] | –
6.77 nM | 63.1% | Cn1ccc2nc(C(=O)N[C@H]3CCOC[C@@H]3O)cc(Cc3ccc(-n4cccn4)cc3)c21 [Compound 453, N-[(3R,4S)-3-hydroxytetrahydropyran-4-yl]-1-methyl-7-[(4-pyrazol-1-ylphenyl)methyl]pyrrolo[3,2-b]pyridine-5-carboxamide] | –
134 nM | 83.7% | Cc1csc2c(Cc3ccc(-n4cccn4)cc3)cc(C(=O)N[C@@H]3COCC[C@H]3O)nc12 [Compound 118] | –
386 nM | 56.6% | O=C(NCC1CCO1)c1cc(Cc2ccc(-c3nccs3)cc2)c2sccc2n1 (stereo not drawn) [Compound 382, N-(oxetan-2-ylmethyl)-7-[(4-thiazol-2-ylphenyl)methyl]thieno[3,2-b]pyridine-5-carboxamide] | –
368 nM | 45.5% | O=C(NCC1CCOCC1)c1cc(Cc2ccc(-c3nccs3)cc2)c2sccc2n1 [Compound 298, N-(tetrahydropyran-4-ylmethyl)-7-[(4-thiazol-2-ylphenyl)methyl]thieno[3,2-b]pyridine-5-carboxamide] | –
1050 nM | 68.7% | O=C(NC1COC1)c1cc(Cc2ccc(-n3cccn3)cc2)c2sccc2n1 [Compound 279, N-(oxetan-3-yl)-7-[(4-pyrazol-1-ylphenyl)methyl]thieno[3,2-b]pyridine-5-carboxamide] | –
> 10000 nM | 66.8% | O=C(N[C@@H]1COCC[C@H]1O)c1cc(Cc2ccc(C(F)(F)F)nc2)c2sccc2n1 [Compound 92, N-[(3R,4R)-4-hydroxytetrahydropyran-3-yl]-7-[[6-(trifluoromethyl)-3-pyridyl]methyl]thieno[3,2-b]pyridine-5-carboxamide] | –
4880 nM | 71.3% | Cc1nn(C)cc1-c1ccc(Cc2cc(C(=O)N[C@H]3CCOC[C@@H]3O)nc3ccsc23)cc1 [Compound 248, 7-[[4-(1,3-dimethylpyrazol-4-yl)phenyl]methyl]-N-[(3R,4S)-3-hydroxytetrahydropyran-4-yl]thieno[3,2-b]pyridine-5-carboxamide] | –
108 nM | 84.7% | Cc1cc2nc(C(=O)N[C@H]3CCOC[C@@H]3O)cc(Cc3ccc(-n4cccn4)cc3)c2s1 [Compound 238, N-[(3R,4S)-3-hydroxytetrahydropyran-4-yl]-2-methyl-7-[(4-pyrazol-1-ylphenyl)methyl]thieno[3,2-b]pyridine-5-carboxamide] | –
176 nM | 65.5% | Cn1ncc2nc(C(=O)N[C@H]3CCOC[C@@H]3O)cc(Cc3ccc(-c4cscn4)cc3)c21 [Compound 493, N-[(3R,4S)-3-hydroxytetrahydropyran-4-yl]-1-methyl-7-[(4-thiazol-4-ylphenyl)-methyl]pyrazolo[4,3-b]pyridine-5-carboxamide] | –
203 nM | 69.3% | O=C(NC[C@@H]1CCCO1)c1cc(Cc2ccc(-n3cccn3)cc2)c2sccc2n1 [Compound 286, 7-[(4-pyrazol-1-ylphenyl)methyl]-N-[[(2S)-tetrahydrofuran-2-yl]methyl]thieno[3,2-b]pyridine-5-carboxamide] | –
> 10000 nM | 41.2% | Cn1cc(-c2ccc(Cc3cc(C(=O)N[C@H]4COCC[C@@H]4O)nc4ccsc34)cn2)cn1 [Compound 62, N-[(3S,4S)-4-hydroxytetrahydropyran-3-yl]-7-[[6-(1-methylpyrazol-4-yl)-3-pyridyl]methyl]thieno[3,2-b]pyridine-5-carboxamide] | –
1780 nM | 82.6% | CN1CCC(NC(=O)c2cc(Cc3ccc(-c4cscn4)cc3)c3sccc3n2)CC1 [Compound 211, N-(1-methyl-4-piperidyl)-7-[(4-thiazol-4-ylphenyl)methyl]thieno[3,2-b]pyridine-5-carboxamide] | –
16.8 nM | 81.6% | Cc1nc(-c2ccc(Cc3cc(C(=O)N[C@@H]4CCOC[C@H]4O)nc4ccsc34)cc2)co1 [Compound 166, N-[(3S,4R)-3-hydroxytetrahydropyran-4-yl]-7-[[4-(2-methyloxazol-4-yl)phenyl]methyl]thieno[3,2-b]pyridine-5-carboxamide] | –
